Laboratory results taken from patent US10472356B2, “Bicyclic ketone sulfonamide compounds” (AMGEN INC., priority 2015, dated 2019).

Legend:
human Nav1.7 [1] = target: T1, human Nav1.7 (Homo sapiens, UniProt Q15858); assay: Nav 1.7 IWB In Vitro Assay (IonWorks Barracuda); format: cell-based; details: HEK293 cells stably transfected with human Nav 1.7; IonWorks Barracuda population patch-clamp; cells clamped to −20 mV for 4 minutes with compound; 26th pulse; read-out: hNav1.7 IWB IC50
T1 construct: expressed in transfected cells; host or cells: HEK293
Protocol: Nav 1.7 IWB In Vitro Assay
HEK293 cells stably transfected with human Nav 1.7 were recorded in population patch-clamp mode with the IonWorks© Barracuda (IWB) automated electrophysiology system (Molecular Devices, LLC, Sunnyvale, Calif.). From a holding potential of −110 mV, sodium currents were elicited by a train of 26 depolarizations of 150 ms duration to −20 mV at a frequency of 5 Hz. Cells were then clamped to −20 mV for a period of 4 minutes in the presence of a single concentration of test compound. Following this compound incubation period, cells were clamped to −110 mV for three seconds to recover unbound channels and put through the same 26 pulse voltage protocol as above. Peak inward current during the 26th pulse to −20 mV in the presence of compound was divided by the peak inward current evoked by the 26th pulse to −20 mV in the absence of compound to determine percent inhibition. Concentration-response curves of percent inhibition as a function of concentration were generated to calculate IC50 values.

human Nav1.7 [2] = target: T1, human Nav1.7; assay: Nav 1.7 In Vitro PatchXpress (PX) Assay; format: cell-based; details: HEK 293 cells stably transfected with human Nav1.7; PatchXpress whole cell voltage clamp; partially inactivated state (holding potential yielding 20 to 50% inactivation); read-out: hNav1.7 PX IC50
Protocol: Nav 1.7 In Vitro PatchXpress (PX) Assay
HEK 293 cells stably transfected with human Nav1.7 were recorded in whole cell voltage clamp mode with the PatchXpress automated electrophysiology system (Molecular Devices, LLC, Sunnyvale, Calif.). Compound effects were measured on a partially inactivated state of the sodium channel. Cells were clamped to a holding potential yielding 20 to 50% inactivation. To elicit sodium current, channels were activated by pulsing to −10 mV for 20 msec. This voltage protocol was repeated at a rate of 0.1 Hz throughout the experiment. A single concentration of test compound was applied to cells for a duration of 3 minutes. Peak sodium current was measured at the end of the compound addition period to determine percent inhibition. Three to five cells were tested per concentration, and IC50 curves were fitted to percent inhibition as a function of concentration.

T1 sequence (Q15858 whole entry): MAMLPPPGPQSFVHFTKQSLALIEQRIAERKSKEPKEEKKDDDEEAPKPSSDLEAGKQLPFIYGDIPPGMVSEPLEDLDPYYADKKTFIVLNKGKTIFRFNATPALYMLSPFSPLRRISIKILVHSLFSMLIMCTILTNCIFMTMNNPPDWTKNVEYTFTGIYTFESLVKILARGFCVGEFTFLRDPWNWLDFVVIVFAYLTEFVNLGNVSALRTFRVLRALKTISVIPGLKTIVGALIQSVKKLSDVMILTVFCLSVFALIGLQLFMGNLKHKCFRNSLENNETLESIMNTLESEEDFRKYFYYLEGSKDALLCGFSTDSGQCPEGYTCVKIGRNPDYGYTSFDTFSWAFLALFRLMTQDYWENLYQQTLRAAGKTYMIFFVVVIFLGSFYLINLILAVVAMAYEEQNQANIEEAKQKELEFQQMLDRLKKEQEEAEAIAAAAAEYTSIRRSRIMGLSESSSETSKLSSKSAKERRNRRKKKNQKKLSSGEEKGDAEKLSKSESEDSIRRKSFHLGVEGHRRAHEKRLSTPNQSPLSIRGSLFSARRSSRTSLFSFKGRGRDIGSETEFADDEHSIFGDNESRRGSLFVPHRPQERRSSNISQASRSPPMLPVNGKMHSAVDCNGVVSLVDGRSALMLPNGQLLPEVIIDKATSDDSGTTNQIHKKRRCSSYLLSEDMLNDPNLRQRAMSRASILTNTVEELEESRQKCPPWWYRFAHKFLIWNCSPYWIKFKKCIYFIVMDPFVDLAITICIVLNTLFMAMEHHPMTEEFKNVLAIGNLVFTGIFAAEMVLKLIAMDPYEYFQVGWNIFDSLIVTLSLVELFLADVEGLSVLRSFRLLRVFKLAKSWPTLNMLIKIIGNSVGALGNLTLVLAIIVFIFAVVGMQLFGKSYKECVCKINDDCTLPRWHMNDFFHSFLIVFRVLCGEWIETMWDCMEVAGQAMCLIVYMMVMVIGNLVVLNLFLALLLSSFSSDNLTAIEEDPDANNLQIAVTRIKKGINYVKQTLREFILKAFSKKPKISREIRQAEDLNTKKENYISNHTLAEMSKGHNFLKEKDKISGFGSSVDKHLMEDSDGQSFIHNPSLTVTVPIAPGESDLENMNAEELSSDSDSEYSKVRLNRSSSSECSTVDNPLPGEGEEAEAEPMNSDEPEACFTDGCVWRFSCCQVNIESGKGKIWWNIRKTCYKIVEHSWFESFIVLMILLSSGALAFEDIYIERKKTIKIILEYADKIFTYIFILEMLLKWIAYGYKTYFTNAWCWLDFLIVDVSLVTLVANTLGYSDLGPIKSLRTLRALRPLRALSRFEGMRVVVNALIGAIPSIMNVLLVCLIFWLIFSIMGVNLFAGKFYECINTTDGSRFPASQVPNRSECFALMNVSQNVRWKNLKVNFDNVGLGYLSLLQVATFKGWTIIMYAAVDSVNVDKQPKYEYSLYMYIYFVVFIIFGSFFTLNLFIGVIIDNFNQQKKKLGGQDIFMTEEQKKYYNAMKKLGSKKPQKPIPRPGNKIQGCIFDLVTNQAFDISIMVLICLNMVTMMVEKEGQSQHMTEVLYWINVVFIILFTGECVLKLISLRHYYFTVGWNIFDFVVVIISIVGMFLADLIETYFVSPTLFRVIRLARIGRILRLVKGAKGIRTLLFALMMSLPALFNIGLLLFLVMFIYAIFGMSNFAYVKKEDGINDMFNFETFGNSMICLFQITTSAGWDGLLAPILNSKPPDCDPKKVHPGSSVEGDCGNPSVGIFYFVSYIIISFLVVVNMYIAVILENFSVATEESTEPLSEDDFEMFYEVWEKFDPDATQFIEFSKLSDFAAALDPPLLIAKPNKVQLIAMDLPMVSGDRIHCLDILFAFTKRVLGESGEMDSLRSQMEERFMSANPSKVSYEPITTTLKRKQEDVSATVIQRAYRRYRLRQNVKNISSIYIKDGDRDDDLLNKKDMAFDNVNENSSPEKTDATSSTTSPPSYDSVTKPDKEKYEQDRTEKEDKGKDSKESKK

SMILES | IC50 (human Nav1.7 [1]) [nM] | IC50 (human Nav1.7 [2]) [nM]
COc1cc(-c2cc(F)cc(Cl)c2)c(F)cc1-n1c2c(ccc1=O)CN(S(=O)(=O)Nc1ccccn1)CC2 (single isomer, unassigned) [Example 11-M, M-1-(3′-chloro-2,5′-difluoro-5-methoxy-4-biphenylyl)-2-oxo-N-2-pyridinyl-1,5,7,8-tetrahydro-1,6-naphthyridine-6(2H)-sulfonamide] | 849 | 4500
COc1cc(-c2ccc(C)c(F)c2)c(F)cc1-n1c2c(ccc1=O)CN(S(=O)(=O)Nc1ccon1)CC2 (single isomer, unassigned) [Example 21-M, M-1-(2,3′-difluoro-5-methoxy-4′-methyl-4-biphenylyl)-N-3-isoxazolyl-2-oxo-1,5,7,8-tetrahydro-1,6-naphthyridine-6(2H)-sulfonamide] | 1550 | 4940
COc1cc(-c2ccc(F)c(F)c2)c(F)cc1-n1c2c(ccc1=O)CN(S(=O)(=O)Nc1cccnn1)CC2 (single isomer, unassigned) [Example 32-M, M-2-oxo-N-3-pyridazinyl-1-(2,3′,4′-trifluoro-5-methoxy-4-biphenylyl)-1,5,7,8-tetrahydro-1,6-naphthyridine-6(2H)-sulfonamide] | 1000 | 20600
COc1cc(-c2cccc(C3CC3)c2)c(F)cc1-n1c2c(ccc1=O)CN(S(=O)(=O)Nc1cccnn1)CC2 [Example 42, P-1-(3′-cyclopropyl-2-fluoro-5-methoxy-4-biphenylyl)-2-oxo-N-3-pyridazinyl-1,5,7,8-tetrahydro-1,6-naphthyridine-6(2H)-sulfonamide] | 7.8 | 76.6
COc1cc(-c2cc(F)cc(F)c2)c(F)cc1-n1c2c(ccc1=O)CN(S(=O)(=O)Nc1ncc(F)cn1)CC2 (racemic) [Example 10-(Rac), (Rac)-N-(5-fluoro-2-pyrimidinyl)-2-oxo-1-(2,3′,5′-trifluoro-5-methoxy-4-biphenylyl)-1,5,7,8-tetrahydro-1,6-naphthyridine-6(2H)-sulfonamide] | 163 | 2280
COc1cc(-c2ccc(F)c(C)c2)c(F)cc1-n1c2c(ccc1=O)CN(S(=O)(=O)Nc1ncccn1)CC2 (racemic) [Example 29-(Rac), (Rac)-1-(2,4′-difluoro-5-methoxy-3′-methyl-4-biphenylyl)-2-oxo-N-2-pyrimidinyl-1,5,7,8-tetrahydro-1,6-naphthyridine-6(2H)-sulfonamide] | 122 | 1170
COc1cc(-c2ccc(F)c(C)c2)c(F)cc1-n1c2c(ccc1=O)CN(S(=O)(=O)Nc1ncccn1)CC2 (single isomer, unassigned) [Example 29-P, P-1-(2,4′-difluoro-5-methoxy-3′-methyl-4-biphenylyl)-2-oxo-N-2-pyrimidinyl-1,5,7,8-tetrahydro-1,6-naphthyridine-6(2H)-sulfonamide] | 55.5 | 568
COc1cc(-c2cc(F)cc(Cl)c2)c(F)cc1-n1c2c(ccc1=O)CN(S(=O)(=O)Nc1cccc(F)n1)CC2 (single isomer, unassigned) [Example 13-M, M-1-(3′-chloro-2,5′-difluoro-5-methoxy-4-biphenylyl)-N-(6-fluoro-2-pyridinyl)-2-oxo-1,5,7,8-tetrahydro-1,6-naphthyridine-6(2H)-sulfonamide] | 983 | 7550
COc1nc(-c2cc(F)cc(Cl)c2)c(F)cc1-n1c2c(ccc1=O)CN(S(=O)(=O)Nc1ccon1)CC2 (racemic) [Example 36, (Rac)-1-(6-(3-chloro-5-fluorophenyl)-5-fluoro-2-methoxy-3-pyridinyl)-N-3-isoxazolyl-2-oxo-1,5,7,8-tetrahydro-1,6-naphthyridine-6(2H)-sulfonamide] | 173 | 423
COc1cc(-c2cc(F)cc(Cl)c2)c(F)cc1-n1c2c(ccc1=O)CN(S(=O)(=O)Nc1ccccn1)CC2 (racemic) [Example 11-(Rac), (Rac)-1-(3′-chloro-2,5′-difluoro-5-methoxy-4-biphenylyl)-2-oxo-N-2-pyridinyl-1,5,7,8-tetrahydro-1,6-naphthyridine-6(2H)-sulfonamide] | 60.9 | 371
COc1cc(-c2cc(F)cc(F)c2)c(F)cc1-n1c2c(ccc1=O)CN(S(=O)(=O)Nc1ncc(F)cn1)CC2 (single isomer, unassigned) [Example 10-P, P-N-(5-fluoro-2-pyrimidinyl)-2-oxo-1-(2,3′,5′-trifluoro-5-methoxy-4-biphenylyl)-1,5,7,8-tetrahydro-1,6-naphthyridine-6(2H)-sulfonamide] | 52.9 | 644

Next, values leading:

IC50 (human Nav1.7 [1]) [nM] | IC50 (human Nav1.7 [2]) [nM] | SMILES
8.5 | 251 | COc1cc(-c2cccc(Cl)c2OC)c(F)cc1-n1c2c(ccc1=O)CN(S(=O)(=O)Nc1cccnn1)CC2 [Example 65, P-1-(3′-chloro-2-fluoro-2′,5-dimethoxy-[1,1′-biphenyl]-4-yl)-2-oxo-N-(pyridazin-3-yl)-1,2,7,8-tetrahydro-1,6-naphthyridine-6(5H)-sulfonamide]
270 | 1800 | COc1cc(-c2ccc(F)c(C)c2)c(C)cc1-n1c2c(ccc1=O)CN(S(=O)(=O)Nc1cccnn1)CC2 (single isomer, unassigned) [Example 93-M, M-1-(4′-fluoro-5-methoxy-2,3′-dimethyl-[1,1′-biphenyl]-4-yl)-2-oxo-N-(pyridazin-3-yl)-1,2,7,8-tetrahydro-1,6-naphthyridine-6(5H)-sulfonamide]
5.9 | 41.4 | COc1cc(-c2ccc(F)c(C)c2)c(Cl)cc1-n1c2c(ccc1=O)CN(S(=O)(=O)Nc1cccnn1)CC2 (single isomer, unassigned) [Example 92-P, P-1-(2-chloro-4′-fluoro-5-methoxy-3′-methyl-[1,1′-biphenyl]-4-yl)-2-oxo-N-(pyridazin-3-yl)-1,2,7,8-tetrahydro-1,6-naphthyridine-6(5H)-sulfonamide]
5.3 | 44.5 | COc1cc(-c2cc(C)cc(OC(F)(F)F)c2)c(F)cc1-n1c2c(ccc1=O)CN(S(=O)(=O)Nc1cccnn1)CC2 [Example 78, P-1-(2-fluoro-5-methoxy-3′-methyl-5′-(trifluoromethoxy)-[1,1′-biphenyl]-4-yl)-2-oxo-N-(pyridazin-3-yl)-1,2,7,8-tetrahydro-1,6-naphthyridine-6(5H)-sulfonamide]
15.1 | 265 | COc1cc(-c2cccc(C(F)F)c2)c(F)cc1-n1c2c(ccc1=O)CN(S(=O)(=O)Nc1cccnn1)CC2 [Example 72, P-1-(3′-(difluoromethyl)-2-fluoro-5-methoxy-[1,1′-biphenyl]-4-yl)-2-oxo-N-(pyridazin-3-yl)-1,2,7,8-tetrahydro-1,6-naphthyridine-6(5H)-sulfonamide]
< 2 | 45.1 | COc1cc(-c2ccc(F)c(F)c2)c(Cl)cc1-n1c2c(ccc1=O)CN(S(=O)(=O)Nc1ccon1)CC2 [Example 51, P-1-(2-chloro-3′,4′-difluoro-5-methoxy-4-biphenylyl)-N-3-isoxazolyl-2-oxo-1,5,7,8-tetrahydro-1,6-naphthyridine-6(2H)-sulfonamide]
2.8 | 22.9 | COc1cc(-c2cc(OC)c(-n3c4c(ccc3=O)CN(S(=O)(=O)Nc3ccon3)CC4)cc2Cl)ccc1Cl [Example 52, P-1-(2,4′-dichloro-3′,5-dimethoxy-4-biphenylyl)-N-3-isoxazolyl-2-oxo-1,5,7,8-tetrahydro-1,6-naphthyridine-6(2H)-sulfonamide]
23.6 | 63.5 | COc1cc(-c2ccc(F)c(C)c2)c(Cl)cc1-n1c2c(ccc1=O)CN(S(=O)(=O)Nc1cccnn1)CC2 (racemic) [Example 92-(Rac), (Rac)-1-(2-chloro-4′-fluoro-5-methoxy-3′-methyl-[1,1′-biphenyl]-4-yl)-2-oxo-N-(pyridazin-3-yl)-1,2,7,8-tetrahydro-1,6-naphthyridine-6(5H)-sulfonamide]
22.2 | 321 | COc1ccc(-c2cc(OC)c(-n3c4c(ccc3=O)CN(S(=O)(=O)Nc3cccnn3)CC4)cc2F)cc1Cl [Example 63, P-1-(3′-chloro-2-fluoro-4′,5-dimethoxy-[1,1′-biphenyl]-4-yl)-2-oxo-N-(pyridazin-3-yl)-1,2,7,8-tetrahydro-1,6-naphthyridine-6(5H)-sulfonamide]
37.5 | 420 | COc1cc(-c2cc(Cl)cnc2OC)c(F)cc1-n1c2c(ccc1=O)CN(S(=O)(=O)Nc1cccnn1)CC2 [Example 60, P-1-(4-(5-chloro-2-methoxypyridin-3-yl)-5-fluoro-2-methoxyphenyl)-2-oxo-N-(pyridazin-3-yl)-1,2,7,8-tetrahydro-1,6-naphthyridine-6(5H)-sulfonamide]
